What was measured:
glutathione in the brain = assay: Glutathione (GSH) levels in whole-brain homogenates by LC/MS after intranasal or oral NAC; type: in vivo, male Sprague-Dawley rats; conditions: for glutathione in the brain compared to vehicle control (IN PBS): 0.5 hours and 2 hours following administration
Description: (§1) In this example, a study was conducted to evaluate the pharmacokinetics of N-acetyl cysteine administered in an intranasal formulation. The study also evaluated the effectiveness on intranasally administered NAC to increase glutathione concentration in the brain.
(§2) C13-labelled N-acetyl L-cysteine (purchased from Cambridge Isotope Laboratories) was used to prepare formulations in phosphate-buffered saline (PBS) for the study. The subjects for the study were male Sprague-Dawley rats weighing approximately 250 grams, and 39 animals were separated into four groups, as shown in Table 1. The animals in the study groups were administered either an intranasal (IN) dose or an oral (PO) dose of N-acetyl cysteine via gavage, as shown in Table 1. Group 1 and group 2 were administered one 20 μl, intranasal injection. Group 3 was administered a single oral dose of 500 μL. Group 4 was administered two separate 10 μL intranasal injections (one per nostril).
The animals were fasted the night prior to the study and were anesthetized using a cocktail of ketamine/xylazine before administration of the study formulation. The rats were left on their sides for 15 minutes after administration of the study formulation. The animals were observed post administration, and at least once a day, more if deemed necessary, during the pre-treatment and treatment periods for mortality and morbidity. In particular, signs of ill health were based on body weight loss, change in appetite, and behavioral changes such as altered gait, lethargy and gross manifestations of stress.
Three animals from each Group were sacrificed at the established time points (0.5 hour, 1.0 hour and 2.0 hour), and whole brains from the sacrificed animals were collected for analysis. 3 animals from Group 3 were also sacrificed pre-dose and analyzed. The brain samples were stored at −80° C. freezer until sample analysis. Homogenates of the brain samples were prepared and analyzed, and glutathione (GSH) levels in the brain samples were measured by LC/MS.

[1] = parameters: species or system male Sprague-Dawley rats; conditions: rat, in vivo, 20 mg/kg
Description: as §1
as §2, with “nostril). […]” for “nostril).”
Three animals from each Group were sacrificed at the established time points (0.5 hour, 1.0 hour and 2.0 hour), and whole brains from the sacrificed animals were collected for analysis. 3 animals from Group 3 were also sacrificed pre-dose and analyzed. […] Homogenates of the brain samples were prepared and analyzed, and glutathione (GSH) levels in the brain samples were measured by LC/MS.

[2] = system: blast induced mild traumatic brain injury; conditions: orally administered, cited from earlier work
[3] = orally administered; cited from earlier work
traumatic brain injury [4] = conditions: more than 20 preclinical studies; cited from earlier work
traumatic brain injury [5] = conditions: cited from earlier work

Molecule: CC(=O)N[C@@H](CS)C(=O)O [NAC, N-acetylcysteine]
- raising glutathione levels in the brain, intranasal compared with oral NAC (glutathione in the brain; intranasal 20 mg/kg vs oral (PO) 20 mg/kg, rat whole brain, FIG. 1): as effective as oral NAC
- increased GSH concentration in the brain, IN NAC vs IN PBS group (glutathione in the brain; intranasal 20 mg/kg, 2 hour point, p=0.033, Student's T-test, planned comparison): statistically significant
- glutathione in the brain compared to vehicle control (IN PBS) (glutathione in the brain; intranasal NAC 20 mg/kg): Clear trends for increased glutathione
- glutathione in the brain compared to vehicle control (IN PBS) (glutathione in the brain; oral NAC 20 mg/kg): Clear trends for increased glutathione
- concentration of isotope labeled NAC in brain tissue following administration [1]: did not detect an increase
- severity and resolution of sequelae of blast induced mild traumatic brain injury ([2]; 81 active duty service members): beneficial effects
- reducing the symptoms of mild-moderate traumatic brain injury in human patients [2]: effective
- adverse effects [3]: may cause nausea, vomiting and diarrhea

Molecule: erythropoietin
- outcome following traumatic brain injury (traumatic brain injury [4]): improves outcome
- increase of the incidence of deep venous thrombosis of the lower limbs (traumatic brain injury [5]; in vivo): did not
- number of patients with severe neurological dysfunction (GOS-E level 1-4) (traumatic brain injury [5]; large multi-center randomized controlled trial): did not reduce

From patent US12257292B2, “Enhanced delivery of antioxidants for treatment of central nervous system disorders involving oxidative stress” (Beyond Barriers Therapeutics, Inc., priority 2017, dated 2025)
